Measurements from paper PMC6001238, “Iterative Chemical Engineering of Vancomycin Leads to Novel Vancomycin Analogs With a High in Vitro Therapeutic Index” (Frontiers in Microbiology, 2018).
In brackets after ≈: the same amount, converted by molar mass.

Experiments:
[1] = test system: S. aureus VSSA (ATCC 6538); assay: MIC, broth microdilution, vancomycin-sensitive S. aureus (VSSA/MSSA, ATCC 6538); type: cell-based, Staphylococcus aureus; settings: for MIC: Staphylococcus aureus VSSA, read-out: MIC; for MIC-fold improvement vs. vancomycin: VSSA, ratio of MIC of vancomycin and MIC of analogue
How it was run: (§1)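 Controls (ultrapure water; broth not inoculated) were included throughout CLSI-compliant broth microdilution. One condition supplemented analogue or comparator with 10 μM vancomycin, final level.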

E. faecalis VSE 1 = assay: MIC, broth microdilution, vancomycin-sensitive E. faecalis (VSE 1); type: cell-based, Enterococcus faecalis; settings: for MIC: Enterococcus faecalis VSE 1 (vancomycin-sensitive), read-out: MIC; for MIC-fold improvement vs. vancomycin: VSE 1, ratio of MIC of vancomycin and MIC of analogue
How it was run: as §1

MRSA KS89 = assay: MIC, broth microdilution, MRSA KS89; type: cell-based, Staphylococcus aureus; settings: for MIC-fold improvement vs. vancomycin: MRSA KS8, ratio of MIC of vancomycin and MIC of analogue; for MIC: Staphylococcus aureus MRSA KS8, read-out: MIC
How it was run: as §1

E. faecalis VRE 29 = assay: MIC, broth microdilution, vancomycin-resistant E. faecalis VRE 29 (VanA); type: cell-based, Enterococcus faecalis; settings: for MIC: Enterococcus faecalis VRE 29 (vancomycin-resistant), read-out: MIC; for MIC-fold improvement vs. vancomycin: VRE 29, ratio of MIC of vancomycin and MIC of analogue
How it was run: as §1

E. faecalis VRE 6 = assay: MIC, broth microdilution, vancomycin-resistant E. faecalis VRE 6 (VanA); type: cell-based, Enterococcus faecalis; settings: for MIC: Enterococcus faecalis VRE 6 (vancomycin-resistant), read-out: MIC; for MIC-fold improvement vs. vancomycin: VRE 6, ratio of MIC of vancomycin and MIC of analogue
How it was run: as §1

MRSA KS2 = assay: MIC, broth microdilution, MRSA KS2; type: cell-based, Staphylococcus aureus; settings: for MIC-fold improvement vs. vancomycin: MRSA KS2, ratio of MIC of vancomycin and MIC of analogue; for MIC: Staphylococcus aureus MRSA KS2, read-out: MIC
How it was run: as §1

S. aureus VRSA = assay: MIC, broth microdilution, vancomycin-resistant S. aureus (VRSA); type: cell-based, Staphylococcus aureus; settings: for MIC: Staphylococcus aureus VRSA, read-out: MIC; for MIC-fold improvement vs. vancomycin: VRSA, ratio of MIC of vancomycin and MIC of analogue
How it was run: as §1

E. faecalis VRE 53 = assay: MIC, broth microdilution, vancomycin-resistant E. faecalis VRE 53 (VanA); type: cell-based, Enterococcus faecalis; settings: for MIC: Enterococcus faecalis VRE 53 (vancomycin-resistant), read-out: MIC; for MIC-fold improvement vs. vancomycin: VRE 53, ratio of MIC of vancomycin and MIC of analogue
How it was run: as §1

MRSA KS1 = assay: MIC, broth microdilution, MRSA KS1; type: cell-based, Staphylococcus aureus; settings: for MIC-fold improvement vs. vancomycin: MRSA KS1, ratio of MIC of vancomycin and MIC of analogue; for MIC: Staphylococcus aureus MRSA KS1, read-out: MIC
How it was run: as §1

S. aureus VISA/HIP5827 = assay: MIC, broth microdilution, vancomycin-intermediate S. aureus VISA HIP5827; type: cell-based, Staphylococcus aureus; settings: for MIC: Staphylococcus aureus VISA/HIP5827, read-out: MIC; for MIC-fold improvement vs. vancomycin: VISA/HIP5827, ratio of MIC of vancomycin and MIC of analogue
How it was run: as §1

MRSA KS6 = assay: MIC, broth microdilution, MRSA KS6; type: cell-based, Staphylococcus aureus; settings: for MIC-fold improvement vs. vancomycin: MRSA KS6, ratio of MIC of vancomycin and MIC of analogue; for MIC: Staphylococcus aureus MRSA KS6, read-out: MIC
How it was run: as §1

[2] = test system: human cervix carcinoma (HeLa) cells; assay: Cytostatic activity, HeLa cell proliferation; type: cell-based; settings: mean ± SD of three experiments; highest concentration tested 250 µM; 4 days; read-out: Toxicity (IC50) HeLa
How it was run: (§2)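 Test compounds, serially diluted, received an equal volume of cell suspension at 300,000–500,000 cells/mL. After 37°C incubation (2 days for L1210, 3 for CEM, 4 for HeLa), cells were enumerated by Coulter counting and 50%-inhibitory concentrations calculated per cell type.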

[3] = test system: human T-lymphocyte (CEM) cells; assay: Cytostatic activity, CEM cell proliferation; type: cell-based; settings: mean ± SD of three experiments; highest concentration tested 250 µM; 3 days; read-out: Toxicity (IC50) CEM
How it was run: as §2

E. faecalis VRE 37 = assay: MIC, broth microdilution, vancomycin-resistant E. faecalis VRE 37 (VanA); type: cell-based, Enterococcus faecalis; settings: for MIC: Enterococcus faecalis VRE 37 (vancomycin-resistant), read-out: MIC; for MIC-fold improvement vs. vancomycin: VRE 37, ratio of MIC of vancomycin and MIC of analogue
How it was run: as §1

[4] = test system: Murine leukemia (L1210) cells; assay: Cytostatic activity, L1210 cell proliferation; type: cell-based; settings: mean ± SD of three experiments; highest concentration tested 250 µM; 2 days; read-out: Toxicity (IC50) L1210
How it was run: as §2

[5] = test system: L1210, CEM and HeLa cell lines; assay: Cytostatic activity, average or summary over L1210, CEM and HeLa; type: cell-based; settings: average of L1210, CEM and HeLa; read-out: Toxicity (IC50) Average
How it was run: as §2

Structure (SMILES)	MIC [1]	MIC-fold improvement vs. vancomycin [1]	MIC (E. faecalis VSE 1)	MIC-fold improvement vs. vancomycin (E. faecalis VSE 1)	MIC-fold improvement vs. vancomycin (MRSA KS89)	MIC (MRSA KS89)	MIC (E. faecalis VRE 29)	MIC (E. faecalis VRE 6)	MIC-fold improvement vs. vancomycin (E. faecalis VRE 6)	MIC-fold improvement vs. vancomycin (MRSA KS2)	MIC (MRSA KS2)	MIC (S. aureus VRSA)	MIC-fold improvement vs. vancomycin (S. aureus VRSA)	MIC (E. faecalis VRE 53)	MIC-fold improvement vs. vancomycin (E. faecalis VRE 53)	MIC-fold improvement vs. vancomycin (MRSA KS1)	MIC (MRSA KS1)	MIC (S. aureus VISA/HIP5827)	MIC-fold improvement vs. vancomycin (S. aureus VISA/HIP5827)	MIC-fold improvement vs. vancomycin (MRSA KS6)	also measured
CCc1ccc(NC(=O)CNC(=O)[C@H]2NC(=O)[C@H]3NC(=O)[C@H](NC(=O)[C@@H]4NC(=O)[C@H](CC(N)=O)NC(=O)[C@H](NC(=O)[C@@H](CC(C)C)NC)[C@H](O)c5ccc(c(Cl)c5)Oc5cc4cc(c5O[C@@H]4O[C@H](CO)[C@@H](O)[C@H](O)[C@H]4O[C@H]4C[C@](C)(N)[C@H](O)[C@H](C)O4)Oc4ccc(cc4Cl)[C@H]3O)c3ccc(O)c(c3)-c3c(O)cc(O)cc32)cc1 [Vanc-13]	0.39 µM (≈ 0.628 µg/mL)	2	0.39 µM (≈ 0.628 µg/mL)	4	2	0.39 µM (≈ 0.628 µg/mL)	12.5 µM (≈ 20.1 µg/mL)	12.5 µM (≈ 20.1 µg/mL)	16	4	0.20 µM (≈ 0.322 µg/mL)	3.13 µM (≈ 5.04 µg/mL)	32	12.5 µM (≈ 20.1 µg/mL)	32	2	0.39 µM (≈ 0.628 µg/mL)	0.39 µM (≈ 0.628 µg/mL)	16	2	MIC (MRSA KS6): 0.39 µM (≈ 0.628 µg/mL); IC50 [2]: 149 ± 6 µM; IC50 [3]: > 250 µM; MIC (E. faecalis VRE 37): 3.13 µM (≈ 5.04 µg/mL); MIC-fold improvement vs. vancomycin (E. faecalis VRE 37): 256; IC50 [4]: > 250 µM; IC50 [5]: 216 µM
CCCCCc1ccc(NC(=O)CNC(=O)[C@H]2NC(=O)[C@H]3NC(=O)[C@H](NC(=O)[C@@H]4NC(=O)[C@H](CC(N)=O)NC(=O)[C@H](NC(=O)[C@@H](CC(C)C)NC)[C@H](O)c5ccc(c(Cl)c5)Oc5cc4cc(c5O[C@@H]4O[C@H](CO)[C@@H](O)[C@H](O)[C@H]4O[C@H]4C[C@](C)(N)[C@H](O)[C@H](C)O4)Oc4ccc(cc4Cl)[C@H]3O)c3ccc(O)c(c3)-c3c(O)cc(O)cc32)cc1 [Vanc-74]	0.39 µM (≈ 0.644 µg/mL)	2	0.39 µM (≈ 0.644 µg/mL)	4	4	0.20 µM (≈ 0.33 µg/mL)	12.5 µM (≈ 20.6 µg/mL)	1.56 µM (≈ 2.58 µg/mL)	128	4	0.20 µM (≈ 0.33 µg/mL)	1.56 µM (≈ 2.58 µg/mL)	64	6.25 µM (≈ 10.3 µg/mL)	64	1	0.78 µM (≈ 1.29 µg/mL)	0.78 µM (≈ 1.29 µg/mL)	8	4	MIC-fold improvement vs. vancomycin (E. faecalis VRE 29): 32; MIC (MRSA KS6): 0.20 µM (≈ 0.33 µg/mL); IC50 [2]: 102 ± 46 µM; IC50 [3]: 78 ± 20 µM; MIC (E. faecalis VRE 37): 6.25 µM (≈ 10.3 µg/mL); MIC-fold improvement vs. vancomycin (E. faecalis VRE 37): 64; IC50 [4]: ≥ 250 µM; IC50 [5]: 143 µM
CCc1cccc(C)c1NC(=O)CNC(=O)C1NC(=O)C2NC(=O)C(NC(=O)C3NC(=O)C(CC(N)=O)NC(=O)C(NC(=O)C(CC(C)C)NC)C(O)c4ccc(c(Cl)c4)Oc4cc3cc(c4OC3OC(CO)C(O)C(O)C3OC3CC(C)(N)C(O)C(C)O3)Oc3ccc(cc3Cl)C2O)c2ccc(O)c(c2)-c2c(O)cc(O)cc21 (centres unmarked) [Vanc-19]	0.78 µM (≈ 1.27 µg/mL)	1	1.56 µM (≈ 2.53 µg/mL)	1	1	0.78 µM (≈ 1.27 µg/mL)	12.5 µM (≈ 20.3 µg/mL)	3.13 µM (≈ 5.08 µg/mL)	64	1	0.78 µM (≈ 1.27 µg/mL)	12.5 µM (≈ 20.3 µg/mL)	8	25 µM (≈ 40.6 µg/mL)	16	1	0.78 µM (≈ 1.27 µg/mL)	3.13 µM (≈ 5.08 µg/mL)	2	0.5	MIC-fold improvement vs. vancomycin (E. faecalis VRE 29): 32; MIC (MRSA KS6): 1.56 µM (≈ 2.53 µg/mL); IC50 [2]: 63 ± 5 µM; IC50 [3]: > 250 µM; MIC (E. faecalis VRE 37): 25 µM (≈ 40.6 µg/mL); MIC-fold improvement vs. vancomycin (E. faecalis VRE 37): 16; IC50 [4]: > 250 µM; IC50 [5]: 188 µM
CN[C@H](CC(C)C)C(=O)N[C@H]1C(=O)N[C@@H](CC(N)=O)C(=O)N[C@H]2C(=O)N[C@H]3C(=O)N[C@H](C(=O)N[C@H](C(=O)NCC(=O)Nc4ccc(C(F)(F)F)cc4)c4cc(O)cc(O)c4-c4cc3ccc4O)[C@H](O)c3ccc(c(Cl)c3)Oc3cc2cc(c3O[C@@H]2O[C@H](CO)[C@@H](O)[C@H](O)[C@H]2O[C@H]2C[C@](C)(N)[C@H](O)[C@H](C)O2)Oc2ccc(cc2Cl)[C@H]1O [Vanc-40]	0.78 µM (≈ 1.29 µg/mL)	1	0.78 µM (≈ 1.29 µg/mL)	2	2	0.39 µM (≈ 0.643 µg/mL)	12.5 µM (≈ 20.6 µg/mL)	6.25 µM (≈ 10.3 µg/mL)	32	2	0.39 µM (≈ 0.643 µg/mL)	3.13 µM (≈ 5.16 µg/mL)	32	25 µM (≈ 41.2 µg/mL)	16	2	0.39 µM (≈ 0.643 µg/mL)	1.56 µM (≈ 2.57 µg/mL)	4	2	MIC-fold improvement vs. vancomycin (E. faecalis VRE 29): 32; MIC (MRSA KS6): 0.39 µM (≈ 0.643 µg/mL); IC50 [2]: > 250 µM; IC50 [3]: > 250 µM; MIC (E. faecalis VRE 37): 12.5 µM (≈ 20.6 µg/mL); IC50 [4]: > 250 µM; IC50 [5]: > 250 µM
